Source: ChEMBL document CHEMBL4507273 (2021)

What was measured:
[1] = biological target: Tyrosine-protein kinase Lck (Homo sapiens) (UniProt P06239); conditions: Compound concentration 1000.0 nM
[2] = biological target: Ribosomal protein S6 kinase alpha-6 (Homo sapiens) (UniProt Q9UK32); conditions: Compound concentration 1000.0 nM
[3] = biological target: Serine/threonine-protein kinase Nek4 (Homo sapiens) (UniProt P51957); conditions: Compound concentration 1000.0 nM
[4] = biological target: Dual specificity tyrosine-phosphorylation-regulated kinase 1A (Homo sapiens) (UniProt Q13627); conditions: Compound concentration 1000.0 nM
[5] = biological target: Serine/threonine-protein kinase tousled-like 2 (Homo sapiens) (UniProt Q86UE8); conditions: Compound concentration 1000.0 nM
[6] = biological target: Wee1-like protein kinase 2 (Homo sapiens) (UniProt P0C1S8); conditions: Compound concentration 1000.0 nM
[7] = biological target: Ephrin type-A receptor 8 (Homo sapiens) (UniProt P29322); conditions: Compound concentration 1000.0 nM
[8] = biological target: Serine/threonine-protein kinase TAO1 (Homo sapiens) (UniProt Q7L7X3); conditions: Compound concentration 1000.0 nM
[9] = biological target: SRSF protein kinase 1 (Homo sapiens) (UniProt Q96SB4); conditions: Compound concentration 1000.0 nM
[10] = biological target: T1, 5-hydroxytryptamine receptor 2C (Homo sapiens) (UniProt P28335); conditions: Compound concentration 10.0 uM
T1 sequence (whole entry): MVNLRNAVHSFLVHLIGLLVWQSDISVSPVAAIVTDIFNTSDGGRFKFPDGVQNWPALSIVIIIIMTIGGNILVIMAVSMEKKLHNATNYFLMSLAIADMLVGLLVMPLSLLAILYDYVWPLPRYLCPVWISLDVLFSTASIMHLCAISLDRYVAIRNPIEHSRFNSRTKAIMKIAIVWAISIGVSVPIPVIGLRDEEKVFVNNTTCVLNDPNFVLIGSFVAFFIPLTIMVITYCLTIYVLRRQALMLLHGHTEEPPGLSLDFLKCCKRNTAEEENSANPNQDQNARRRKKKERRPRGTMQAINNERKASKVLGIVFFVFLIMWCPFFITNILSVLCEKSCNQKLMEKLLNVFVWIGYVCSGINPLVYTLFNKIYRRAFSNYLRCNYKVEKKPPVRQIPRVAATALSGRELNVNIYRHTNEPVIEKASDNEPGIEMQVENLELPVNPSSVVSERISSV

[11] = biological target: Dual specificity testis-specific protein kinase 1 (Homo sapiens) (UniProt Q15569); conditions: Compound concentration 1000.0 nM
[12] = biological target: Cyclin-dependent kinase 11A (Homo sapiens) (UniProt Q9UQ88); conditions: Compound concentration 1000.0 nM
[13] = biological target: Beta-3 adrenergic receptor (Homo sapiens) (UniProt P13945); conditions: Compound concentration 10.0 uM
[14] = biological target: Vascular endothelial growth factor receptor 1 (Homo sapiens) (UniProt P17948); conditions: Compound concentration 1000.0 nM
[15] = biological target: 5'-AMP-activated protein kinase catalytic subunit alpha-1 (Homo sapiens) (UniProt Q13131); conditions: Compound concentration 1000.0 nM
5'-AMP-activated protein kinase catalytic subunit alpha-1 (Homo sapiens), sequence (Q13131 whole entry, looked up): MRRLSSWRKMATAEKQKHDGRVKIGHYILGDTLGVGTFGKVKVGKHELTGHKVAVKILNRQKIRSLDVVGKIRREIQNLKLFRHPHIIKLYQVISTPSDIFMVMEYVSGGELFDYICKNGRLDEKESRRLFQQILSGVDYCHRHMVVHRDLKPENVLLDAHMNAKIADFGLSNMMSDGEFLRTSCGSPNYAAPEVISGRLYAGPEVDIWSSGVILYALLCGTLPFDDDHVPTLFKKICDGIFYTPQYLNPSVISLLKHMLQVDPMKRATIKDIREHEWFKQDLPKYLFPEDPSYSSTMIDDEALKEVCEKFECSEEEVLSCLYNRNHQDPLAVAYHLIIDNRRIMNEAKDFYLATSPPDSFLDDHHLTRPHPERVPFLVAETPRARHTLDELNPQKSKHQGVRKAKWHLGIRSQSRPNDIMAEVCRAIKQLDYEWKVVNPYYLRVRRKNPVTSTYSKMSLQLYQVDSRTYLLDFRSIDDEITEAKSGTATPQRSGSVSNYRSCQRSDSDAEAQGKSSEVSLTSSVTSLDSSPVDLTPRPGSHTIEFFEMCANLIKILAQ

Histamine H2 receptor = Histamine H2 receptor (Homo sapiens, UniProt P25021); test: GPCRScan assay: inhibition of H2; set-up: radioligand conc. used [nm] 0.02 – 0.05, parental cells Stable HEK
Histamine H2 receptor, sequence (P25021 whole entry): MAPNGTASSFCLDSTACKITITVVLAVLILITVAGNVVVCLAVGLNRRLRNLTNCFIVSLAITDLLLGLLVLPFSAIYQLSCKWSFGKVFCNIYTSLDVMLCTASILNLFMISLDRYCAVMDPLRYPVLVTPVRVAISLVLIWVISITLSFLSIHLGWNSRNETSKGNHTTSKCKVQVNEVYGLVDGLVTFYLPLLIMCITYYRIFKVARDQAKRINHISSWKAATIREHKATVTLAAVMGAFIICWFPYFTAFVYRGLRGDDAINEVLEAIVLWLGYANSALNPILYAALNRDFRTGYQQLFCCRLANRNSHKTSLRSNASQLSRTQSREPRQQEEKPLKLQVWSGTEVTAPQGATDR

[16] = biological target: Serine/threonine-protein kinase BRSK2 (Homo sapiens) (UniProt Q8IWQ3); conditions: Compound concentration 1000.0 nM
[17] = biological target: Ribosomal protein S6 kinase alpha-4 (Homo sapiens) (UniProt O75676); conditions: Compound concentration 1000.0 nM
[18] = biological target: Interferon-induced, double-stranded RNA-activated protein kinase (Homo sapiens) (UniProt P19525); conditions: Compound concentration 1000.0 nM
[19] = biological target: Focal adhesion kinase 1 (Homo sapiens) (UniProt Q05397); conditions: Compound concentration 1000.0 nM
[20] = biological target: Beta-2 adrenergic receptor (Homo sapiens) (UniProt P07550); conditions: Compound concentration 10.0 uM
Beta-2 adrenergic receptor (Homo sapiens), sequence (P07550 whole entry, looked up): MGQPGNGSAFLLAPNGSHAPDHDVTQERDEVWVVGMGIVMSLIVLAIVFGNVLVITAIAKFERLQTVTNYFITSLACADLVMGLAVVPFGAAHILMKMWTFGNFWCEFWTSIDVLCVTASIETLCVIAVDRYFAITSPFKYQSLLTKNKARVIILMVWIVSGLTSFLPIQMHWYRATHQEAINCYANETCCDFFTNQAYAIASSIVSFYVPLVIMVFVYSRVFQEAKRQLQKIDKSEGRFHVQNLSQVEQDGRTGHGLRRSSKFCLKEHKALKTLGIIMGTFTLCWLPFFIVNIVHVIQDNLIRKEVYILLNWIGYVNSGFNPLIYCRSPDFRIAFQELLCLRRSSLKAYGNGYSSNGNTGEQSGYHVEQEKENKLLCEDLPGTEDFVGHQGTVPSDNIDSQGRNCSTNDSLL

[21] = tested on: Tyrosine-protein kinase ABL1 (Homo sapiens), P00519 [H396P]; conditions: Compound concentration 1000.0 nM
[22] = biological target: LIM domain kinase 2 (Homo sapiens) (UniProt P53671); conditions: Compound concentration 1000.0 nM
[23] = biological target: Mitogen-activated protein kinase 7 (Homo sapiens) (UniProt Q13164); conditions: Compound concentration 1000.0 nM
Mitogen-activated protein kinase 7 (Homo sapiens), sequence (Q13164 2-816 limits assumed): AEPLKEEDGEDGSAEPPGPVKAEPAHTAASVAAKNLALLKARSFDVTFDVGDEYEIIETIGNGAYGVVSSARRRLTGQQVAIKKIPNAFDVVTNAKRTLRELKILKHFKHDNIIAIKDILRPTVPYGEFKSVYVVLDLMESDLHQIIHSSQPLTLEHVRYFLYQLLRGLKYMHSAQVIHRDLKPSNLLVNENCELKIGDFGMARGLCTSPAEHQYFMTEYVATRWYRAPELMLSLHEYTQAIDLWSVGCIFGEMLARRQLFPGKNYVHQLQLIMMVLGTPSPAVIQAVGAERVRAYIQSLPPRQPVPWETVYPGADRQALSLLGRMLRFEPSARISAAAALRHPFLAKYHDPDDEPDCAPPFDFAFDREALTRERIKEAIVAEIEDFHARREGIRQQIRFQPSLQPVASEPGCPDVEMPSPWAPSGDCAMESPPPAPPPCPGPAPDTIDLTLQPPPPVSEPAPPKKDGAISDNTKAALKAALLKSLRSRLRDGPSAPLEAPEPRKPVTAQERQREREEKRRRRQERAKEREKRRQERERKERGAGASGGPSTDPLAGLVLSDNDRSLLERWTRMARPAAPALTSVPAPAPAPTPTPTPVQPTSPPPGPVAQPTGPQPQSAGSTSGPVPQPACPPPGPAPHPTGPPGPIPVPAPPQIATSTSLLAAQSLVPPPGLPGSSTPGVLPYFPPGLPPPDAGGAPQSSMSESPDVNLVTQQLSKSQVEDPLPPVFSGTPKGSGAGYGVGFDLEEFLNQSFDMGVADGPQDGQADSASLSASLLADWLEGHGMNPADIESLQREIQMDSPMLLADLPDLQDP

[24] = biological target: ALK tyrosine kinase receptor (Homo sapiens) (UniProt Q9UM73); conditions: Compound concentration 1000.0 nM
[25] = biological target: Phosphatidylinositol 4-kinase beta (Homo sapiens) (UniProt Q9UBF8); conditions: Compound concentration 1000.0 nM
[26] = biological target: Atypical kinase COQ8B, mitochondrial (Homo sapiens) (UniProt Q96D53); conditions: Compound concentration 1000.0 nM
Atypical kinase COQ8B, mitochondrial (Homo sapiens), sequence (Q96D53 whole entry): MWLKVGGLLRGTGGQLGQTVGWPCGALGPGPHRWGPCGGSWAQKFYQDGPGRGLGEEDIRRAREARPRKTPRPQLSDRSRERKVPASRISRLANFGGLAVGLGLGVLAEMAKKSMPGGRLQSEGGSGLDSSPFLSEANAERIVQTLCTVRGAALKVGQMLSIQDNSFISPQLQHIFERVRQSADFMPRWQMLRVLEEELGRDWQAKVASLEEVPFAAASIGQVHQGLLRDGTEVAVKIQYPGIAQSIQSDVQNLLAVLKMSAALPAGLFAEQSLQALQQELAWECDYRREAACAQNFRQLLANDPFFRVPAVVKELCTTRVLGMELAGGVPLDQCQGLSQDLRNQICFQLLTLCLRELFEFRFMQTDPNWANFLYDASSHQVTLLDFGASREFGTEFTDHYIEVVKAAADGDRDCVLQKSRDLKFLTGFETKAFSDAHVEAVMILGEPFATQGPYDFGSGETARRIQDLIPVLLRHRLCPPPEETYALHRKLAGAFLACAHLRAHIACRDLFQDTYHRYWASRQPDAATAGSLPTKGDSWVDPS

[27] = biological target: Sodium-dependent serotonin transporter (Homo sapiens, UniProt P31645); conditions: Compound concentration 10.0 uM
[28] = biological target: Cyclin-dependent kinase 2 homolog (Plasmodium falciparum (isolate 3D7)) (UniProt P61075); conditions: Compound concentration 1000.0 nM
Cyclin-dependent kinase 2 homolog (Plasmodium falciparum (isolate 3D7)), sequence (P61075 whole entry): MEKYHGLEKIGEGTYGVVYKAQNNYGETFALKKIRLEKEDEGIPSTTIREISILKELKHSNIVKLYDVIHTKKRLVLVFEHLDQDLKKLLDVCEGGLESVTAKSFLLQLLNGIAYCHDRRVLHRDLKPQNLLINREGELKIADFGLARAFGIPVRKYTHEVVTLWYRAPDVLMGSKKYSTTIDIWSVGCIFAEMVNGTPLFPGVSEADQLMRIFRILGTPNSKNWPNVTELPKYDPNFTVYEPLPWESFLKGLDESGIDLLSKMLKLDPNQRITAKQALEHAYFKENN

[29] = biological target: Serine/threonine-protein kinase 32B (Homo sapiens) (UniProt Q9NY57); conditions: Compound concentration 1000.0 nM
[30] = biological target: Calcium/calmodulin-dependent protein kinase type 1B (Homo sapiens) (UniProt Q6P2M8); conditions: Compound concentration 1000.0 nM
Calcium/calmodulin-dependent protein kinase type 1B (Homo sapiens), sequence (Q6P2M8 whole entry): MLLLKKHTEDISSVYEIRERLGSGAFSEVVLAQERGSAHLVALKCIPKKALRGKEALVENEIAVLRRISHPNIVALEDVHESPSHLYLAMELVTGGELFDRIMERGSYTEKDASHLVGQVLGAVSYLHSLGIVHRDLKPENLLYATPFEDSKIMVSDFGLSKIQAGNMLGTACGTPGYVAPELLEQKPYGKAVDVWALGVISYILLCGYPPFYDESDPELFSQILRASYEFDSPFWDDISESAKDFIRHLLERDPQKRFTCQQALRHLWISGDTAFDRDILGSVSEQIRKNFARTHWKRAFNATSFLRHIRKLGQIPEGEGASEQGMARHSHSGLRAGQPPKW

[31] = biological target: Serine/threonine-protein kinase Sgk3 (Homo sapiens) (UniProt Q96BR1); conditions: Compound concentration 1000.0 nM
[32] = tested on: Mast/stem cell growth factor receptor Kit (Homo sapiens), P10721 [D816V]; conditions: Compound concentration 1000.0 nM
[33] = biological target: Non-receptor tyrosine-protein kinase TYK2 (Homo sapiens) (UniProt P29597); conditions: Compound concentration 1000.0 nM
[34] = biological target: Macrophage colony-stimulating factor 1 receptor (Homo sapiens) (UniProt P07333); conditions: Compound concentration 1000.0 nM
[35] = biological target: Tyrosine-protein kinase FRK (Homo sapiens) (UniProt P42685); conditions: Compound concentration 1000.0 nM
[36] = biological target: Serine/threonine-protein kinase pim-3 (Homo sapiens) (UniProt Q86V86); conditions: Compound concentration 1000.0 nM
[37] = biological target: Tyrosine-protein kinase Lyn (Homo sapiens) (UniProt P07948); conditions: Compound concentration 1000.0 nM
[38] = biological target: cGMP-dependent protein kinase 1 (Homo sapiens) (UniProt Q13976); conditions: Compound concentration 1000.0 nM

Serine/threonine-protein kinase Nek4 (Homo sapiens), sequence (P51957 whole entry, looked up): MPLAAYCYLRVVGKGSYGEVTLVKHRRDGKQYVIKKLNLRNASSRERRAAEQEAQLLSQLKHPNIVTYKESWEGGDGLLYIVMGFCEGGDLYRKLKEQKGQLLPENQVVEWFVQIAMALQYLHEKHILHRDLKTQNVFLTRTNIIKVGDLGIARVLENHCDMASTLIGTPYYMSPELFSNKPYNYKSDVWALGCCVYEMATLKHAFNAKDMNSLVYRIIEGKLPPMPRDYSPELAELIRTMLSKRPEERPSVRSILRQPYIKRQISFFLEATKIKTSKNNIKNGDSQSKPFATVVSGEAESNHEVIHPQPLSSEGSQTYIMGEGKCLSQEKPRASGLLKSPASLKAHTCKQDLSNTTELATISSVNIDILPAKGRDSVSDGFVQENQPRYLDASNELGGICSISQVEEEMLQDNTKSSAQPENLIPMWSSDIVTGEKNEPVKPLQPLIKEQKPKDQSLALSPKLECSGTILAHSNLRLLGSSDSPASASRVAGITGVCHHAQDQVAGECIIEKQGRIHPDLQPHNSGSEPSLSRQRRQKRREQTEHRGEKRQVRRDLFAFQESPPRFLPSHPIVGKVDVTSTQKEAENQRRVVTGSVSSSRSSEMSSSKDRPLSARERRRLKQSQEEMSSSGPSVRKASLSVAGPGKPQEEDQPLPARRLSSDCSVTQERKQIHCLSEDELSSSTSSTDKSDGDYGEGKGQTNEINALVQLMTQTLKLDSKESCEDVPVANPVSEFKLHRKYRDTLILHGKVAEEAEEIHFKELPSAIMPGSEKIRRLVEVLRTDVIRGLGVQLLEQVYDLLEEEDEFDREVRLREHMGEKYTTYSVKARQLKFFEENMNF
Ribosomal protein S6 kinase alpha-6 (Homo sapiens), sequence (Q9UK32 whole entry): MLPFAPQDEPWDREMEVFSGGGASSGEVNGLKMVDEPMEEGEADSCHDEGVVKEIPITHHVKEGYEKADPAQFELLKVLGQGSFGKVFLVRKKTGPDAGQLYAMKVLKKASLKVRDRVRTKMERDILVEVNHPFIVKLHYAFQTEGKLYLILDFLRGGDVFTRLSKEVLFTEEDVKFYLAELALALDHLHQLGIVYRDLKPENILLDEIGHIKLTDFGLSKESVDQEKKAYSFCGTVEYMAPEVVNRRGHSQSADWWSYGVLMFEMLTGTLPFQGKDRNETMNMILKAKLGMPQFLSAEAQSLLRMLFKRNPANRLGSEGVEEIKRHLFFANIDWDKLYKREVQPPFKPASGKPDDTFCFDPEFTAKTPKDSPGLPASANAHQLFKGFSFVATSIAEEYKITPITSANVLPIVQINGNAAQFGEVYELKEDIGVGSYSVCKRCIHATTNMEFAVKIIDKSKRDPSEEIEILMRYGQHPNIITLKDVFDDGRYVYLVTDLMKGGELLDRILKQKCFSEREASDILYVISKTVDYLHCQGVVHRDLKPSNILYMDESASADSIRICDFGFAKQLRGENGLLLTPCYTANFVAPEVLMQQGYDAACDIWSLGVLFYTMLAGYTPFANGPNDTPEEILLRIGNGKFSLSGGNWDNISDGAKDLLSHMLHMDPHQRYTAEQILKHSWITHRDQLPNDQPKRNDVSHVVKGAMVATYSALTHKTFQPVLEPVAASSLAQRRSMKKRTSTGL

| SMILES | residual activity [1] | residual activity [2] | residual activity [3] | residual activity [4] | residual activity [5] | residual activity [6] | residual activity [7] | residual activity [8] | residual activity [9] | inhibition [10] | residual activity [11] | residual activity [12] | inhibition [13] | residual activity [14] | residual activity [15] | Ki (Histamine H2 receptor; read-out: Ki) | residual activity [16] | residual activity [17] | residual activity [18] | residual activity [19] | other results |
| --- | --- | --- | --- | --- | --- | --- | --- | --- | --- | --- | --- | --- | --- | --- | --- | --- | --- | --- | --- | --- | --- |
| CNCc1ccccc1-c1csc([C@@H](C)Nc2nc(C)nc3cc(OC)c(OC)cc23)c1 [BAY-293] | 100% | 100% | 83% | 88% | 90% | 100% | 100% | 95% | 90% | 73.7% | 83% | 91% | 20% | 87% | 100% | 140 nM | 100% | 79% | 90% | 86% | Ki (Histamine H2 receptor; read-out: pKi (converted)): 140 nM; inhibition [20]: 12.1%; residual activity [21]: 93%; residual activity [22]: 96%; residual activity [23]: 97%; residual activity [24]: 79%; residual activity [25]: 82%; residual activity [26]: 65%; inhibition [27]: 47.4%; residual activity [28]: 76%; residual activity [29]: 100%; residual activity [30]: 95%; residual activity [31]: 78%; residual activity [32]: 81%; residual activity [33]: 71%; residual activity [34]: 91%; residual activity [35]: 100%; residual activity [36]: 83%; residual activity [37]: 100%; residual activity [38]: 100% |
| CNCc1ccccc1-c1csc([C@H](C)Nc2nc(C)nc3cc(OC)c(OC)cc23)c1 [BAY-294] | 100% | 100% | 83% | 80% | 100% | 100% | 100% | 100% | 100% | 71.8% | 100% | 100% | 38.2% | 91% | 93% | 21.1 nM | 100% | 100% | 100% | 92% | inhibition [20]: 18.2%; residual activity [21]: 95%; residual activity [22]: 100%; residual activity [23]: 100%; residual activity [24]: 73%; residual activity [25]: 74%; residual activity [26]: 93%; inhibition [27]: 56.2%; residual activity [28]: 71%; residual activity [29]: 100%; residual activity [30]: 100%; residual activity [31]: 93%; residual activity [32]: 100%; residual activity [33]: 76%; residual activity [34]: 91%; residual activity [35]: 100%; residual activity [36]: 100%; residual activity [37]: 100%; residual activity [38]: 100% |
